Test [1] is described as follows: Pig performance post weaning with LAM and FUC, Example 4. Type of test: in vivo. An excerpt:
One hundred and ninety two piglets were weaned at twenty four days of age, with an initial live weight of 6.4±0.785 Kg and assigned to one of four dietary treatments or 21 days post weaning. The dietary treatments consisted of (T1) basal diet, (T2) basal diet with 300 ppm LAM, (T3) basal diet with 236 ppm FUC, (T4) Basal diet with 300 ppm LAM and 236 ppm FUC. Diets were formulated to have identical concentrations of digestible energy (DE) (16 MJ/Kg) and ileal digestible lysine (14 g/Kg). All amino acid requirements were met relative to lysine (Close, 1994). Chromium III oxide was added to the diets for determination of nutrient digestibility. The LAM and FUC were derived from Laminaria hyperborea.
Piglets were housed in groups of 4 and offered feed twice daily. Water was supplied ad-libitum. Any pig displaying symptoms of illness was treated appropriately and recorded. Pigs were weighed on day 0 (day of weaning), 7, 14 and 21. Feed intake was monitored weekly. Fresh faecal samples were taken on day 10 and were analysed for E. coli and Lactobacilli concentrations. Faeces samples were collected from each pen on day 12-17 and were retained for chemical analysis. Fresh faecal samples were removed on day 14 and were frozen and retained for volatile fatty acid analysis. Fresh faecal samples were taken on day 17 for pH determination.

The subject of a further test is IL-10. In words: Cytokine gene expression in unchallenged ileum and colon tissue (qPCR), Example 5. Type of test: in vivo, pig. The following applies: unchallenged ileum or colon tissue; LAM 300, 600 ppm. The procedure: (§1) 21 pigs with an initial weight of 17.9±2.2 Kg were assigned to one of the 3 dietary treatments: (T1) control; (T2) basal diet+300 ppm LAM; (T3) basal diet+600 ppm LAM. Experimental feeding continued for 21 days ad libitum. Diets were formulated to have similar digestible energy (DE) (14.4 MJ/Kg) and ileal digestible lysine (12.5 g/Kg).
(§2) Ileal and colonic tissues was stabilised in RNAlater® solution and stored overnight at 4° C. The following day, RNAlater® was removed and samples were stored at −86° C. prior to RNA extraction.
(§3) Tissue samples for RNA extraction were removed from −86° C. and homogenised. 500 μl of lysis solution/2-ME was added to each sample and these were mechanically disrupted using one 5 mm stainless steel bead per sample. These were then placed in a Tissue Lyser (Qiagen) and lysates were homogenised for 3 mins and transferred to a GenElute Filtration Column (Sigma Aldrich) and RNA was extracted. 1 µg of total RNA was used for cDNA synthesis using oligo(dT)20 primer in a final reaction volume of 20 μl with Superscript™ III First-Strand synthesis system for reverse transcriptase-polymerase chain reaction (RT-PCR) (Invitrogen Life Technologies, Carlsbad, Calif.). At the last step of cDNA synthesis, treatment with E. coli RNase H (Invitrogen Corp.) was performed to digest the remaining RNA/mRNA template, resulting in the production of the single-stranded cDNA template for subsequent qRT-PCR reactions.
(§4) All porcine primers for the cytokine genes interferon gamma (IFN-γ), interleukin-1α (IL-1α), IL-6, IL-8, IL-10, IL-17, tumour necrosis factor (TNF-α), the mucin genes (MUCs 1, 2, 4, 5AC, 12, 13 and 20) and three reference genes, β-actin (ACTB), Glyceraldehyde-3-phosphate dehydrogenase (GAPDH) and Peptidylprolyl isomerase A (PPIA), were designed using Primer Express™ (PE Applied Biosystems, Foster City, Calif.) and synthesised by MWG Biotech (Milton Keynes, UK). These reference genes were previously validated for use in porcine tissue and qPCR was then carried out on the cDNA using the ABI PRISM 7900HT Fast sequence detection system for 96-well plates (Applied Biosystems, Foster City, Calif.). All samples were prepared in duplicate using SYBR Green Fast PCR Master Mix (Applied Biosystems, Foster City, Calif.), cDNA as template and specific primers for the genes selected. For each reaction 5 μl cDNA, 1.2 μl (forward and reverse primer mix, 5 μM), 10 μl Fast SYBR Green PCR Master Mix (PE Applied Biosystems, Foster City, Calif.) was added and made up to a final volume of 20 μl. The two step PCR program was as follows: 95° C. for 10 minutes for 1 cycle followed by 95° C. for 15 seconds and 60° C. for 1 minute for 40 cycles. The raw Ct values for the reference genes were converted to relative quantities using the formula Q=E ^ΔCt where E is the PCR efficiency of the assay and ^ΔCt is the value calculated for the difference between the lowest Ct value for each gene minus the Ct value of the sample in question. The relative quantities of the endogenous controls were then analysed for stability in geNorm (Vandesompele et al., 2002). The stability ‘M’ value generated by the geNorm application for the selected endogenous controls (ACTB, GAPDH and PPIA) indicated their suitability as endogenous controls for these intestinal samples. The geometric mean of the relative quantities for ACTB, GAPDH and PPIA (normalisation factor) was then calculated using geNorm. The relative quantities of each target gene were divided by the normalisation factor (obtained in geNorm) for that sample to give the final normalised relative expression.

The subject of the next test is IFN-γ. The description is as above. Type of test: in vivo, pig. The following applies: unchallenged ileum or colon tissue; LAM 300, 600 ppm. The procedure:
as §1, §2, §3, §4

A further test relates to IL-17. The description is as above. Type of test: in vivo, pig. The following applies: unchallenged ileum or colon tissue; LAM 300, 600 ppm. As for the experimental part:
as §1, §2, §3, §4

A further test has as its system TNF-α. Described as above. The following applies: unchallenged ileum or colon tissue; LAM 300, 600 ppm. Type of test: in vivo, pig. The procedure: as §1, §2, §3, §4
Another test concerns IL-8. The test is described as above. The class given is in vivo, pig. The following applies: unchallenged ileum or colon tissue; LAM 300, 600 ppm. As for the experimental part: as §1, §2, §3, §4
In the next test the test system is IL-1α. The description is as above. The class given is in vivo, pig. The following applies: unchallenged ileum or colon tissue; LAM 300, 600 ppm. As for the experimental part: as §1, §2, §3, §4
A short description of test [2]: Animal performance and nutrient digestibility, Example 5. Type of test: in vivo, pig. The following applies: increasing LAM 0, 300, 600 ppm, 21 days.
Text: as §1

laminarin: the “Gain: Feed ratio” value in test [1] (days 7-14, LAM supplemented diets (300 ppm) v unsupplemented (0.569)) came to 0.763; in test [1] (entire experimental period, LAM supplemented diets (300 ppm) v unsupplemented (0.646)), 0.703. Moreover, the ADG in test [1] (days 7-14 post weaning, LAM supplemented diets (300 ppm) v diets with no LAM (0.266)) was determined as 0.344; in test [1] (entire experimental period, LAM supplemented diets (300 ppm) v no LAM (0.232)), 0.324. Moreover, in test [1] (weaned pigs, 21 days, LAM 300 ppm, FUC 236 ppm), the “average daily feed intake” value was “no effect”. Besides, the IL-10 gene expression entry with IL-10 was “no effects”. Also, the IFN-γ gene expression result in the test with IFN-γ is recorded as “no effects”. Moreover, the IL-17 gene expression entry in the test on IL-17 is given as “no effects”. Further, in the test on TNF-α, the TNF-α gene expression entry is recorded as “no effects”. For the same substance, in the test with IL-8, the IL-8 gene expression result is on record as “no effects”. Besides, in the test on IL-1α, the IL-1α gene expression entry is listed as “no effects”. Also, the “nutrient digestibility coefficients (DM, OM, ash, N or GE)” value in test [2] is given as “no effect”. For the same substance, the “performance (food intake, daily gain or food conversion ratio)” value in test [2] was “no effect”.

Values taken from patent publication US9241951B2, “Of gastrointestinal health, immunity and performance by dietary intervention” (BIOATLANTIS LTD, priority 2009, dated 2016).
